Assay results from patent US9309314B2, “Polypeptides, nucleic acids and uses thereof” (AGENCY FOR SCIENCE, TECHNOLOGY AND RESEARCH (A*STAR), priority 2013, dated 2016).
“Also recorded” adds a separate entry of the source.

Tests used:
[1] = test system: APLNR; assay: APLNR knockdown (qPCR, flow cytometry); settings: FACs
Method: (§2) HES3 human embryonic stem cells were transduced with 2TU of lentiviruses and selected with 2 ug/ml puromycin for 2 weeks on feeder free culture system.
To obtain hESC-derived cells that express APLNR, we adopted a protocol for cardiac differentiation, which was stopped at Day 3 when APLNR expression peaks (Lian et al., 2013). We refer to this intermediary cell type as Day 3-differentiated mesoendoderm. Briefly, Shef4 and HES3 hESCs were dissociated with Accutase, and 0.14 million cells were plated into each well of a Matrigel-coated 24 well plate in the presence of 5 μM Y-27632 in mTSER1. The media was changed daily for 4 days with mTSER1 until the cells became 90% confluent. On Day 0, mTSER1 was then replaced with differentiation media [RPMI 1640, B-27 supplement with no insulin (Invitrogen)] with 9 μM of GSK3β inhibitor CHIR99201 (BioVision) for 24 hours. The cells were further grown for 2 days in RPMI+B27 without insulin until Day 3, when they were used for qPCR, flow cytometry and AP-binding assays.
Cells were resuspended to 2.5 million/ml and stained with 5 μg/ml of a APLNR (mAB856, R&D Systems) in PBS/5% FBS/1 mM EDTA for 30 minutes on ice, followed by wash in buffer, and stain with a mouse-IgG-Alexa Fluo488 (Molecular Probes) for 30 minutes on ice. Flow cytometry was carried out on LSRII (Becton Dickinson) and data analysis was performed with FlowJo (Treestar Inc.).

[2] = test system: hESCs; assay: hESC growth assays (cell counts, colony size, xCELLigence real time cell index); assay type: cell-based, human; settings: for growth of knockdown hESCs (real-time cell index, xCELLigence): knockdown hESCs versus control hESCs
Method: Feeder-free hESCs were cultured in clumps in mTSER1 (Stem Cell Technologies) on Matrigel (BD 354277).
hESCs were dissociated into single cells using Accutase (Stem Cell Technologies) and plated in the presence of 10 μM Y-27632 (ROCK inhibitor) for 12 hours (Watanabe et al., 2007).
For xCELLigence real time growth assays, 4000 cells were plated per well of an E-plate (ACEA Biosciences) with media changes every 48 hours.
(§1) Recombinant ELA was added at 2.5 uM (or 10 μg/ml). Cell cycle studies were performed with Click-iT EDU staining kit (Invitrogen) and by performing a double thymidine block (2.5 mM thymidine; 16 hour block, 8 hour release, 16 hour block) followed by DAPI staining for DNA content at the indicated times following release.

[3] = test system: undifferentiated hESCs; assay: AP-ELA binding to undifferentiated hESCs after shRNA-mediated depletion of APLNR; settings: Day 0 undifferentiated hESCs
Method: as §2

[4] = test system: hESC-derived mesendoderm cells; assay: AP-ELA binding to Day 3 mesoendoderm cells after shRNA-mediated depletion of APLNR
Method: as §2
Briefly, Shef4 and HES3 hESCs were dissociated with Accutase, and 0.14 million cells were plated into each well of a Matrigel-coated 24 well plate in the presence of 5 μM Y-27632 in mTSER1. The media was changed daily for 4 days with mTSER1 until the cells became 90% confluent. On Day 0, mTSER1 was then replaced with differentiation media [RPMI 1640, B-27 supplement with no insulin (Invitrogen)] with 9 μM of GSK3β inhibitor CHIR99201 (BioVision) for 24 hours. The cells were further grown for 2 days in RPMI+B27 without insulin until Day 3, when they were used for qPCR, flow cytometry and AP-binding assays.

[5] = test system: hESCs; assay: Cell cycle studies (EDU staining, double thymidine block); assay type: cell-based, human; settings: release from double thymidine block
Method: as §1

[6] = test system: hESCs; assay: Teratoma analysis; assay type: in vivo; settings: 10 million cells subcutaneously into SCID mice, day 60
Method: Shef4TetR5-shELA cells were cultured in the presence (shELA) or absence (Control) of 20 ng/ml doxycycline for 3 passages (4 days/passage). Cells were harvested with Accutase (Stemcell Technologies) and resuspended in 1 part Matrigel to 2 parts mTSER1. 10 million cells in 200 μl were injected subcutaneously into the right hind paunches of SCID mice. shELA-injected mice were fed doxycycline (20 μg/ml) for 3 weeks following injection. Mice were sacrificed 60 days post-injection for tumor analysis.

[7] = test system: hESCs; assay: Directed endoderm differentiation of hESCs (SOX17+ cell count); assay type: cell-based, human; settings: immunofluorescence
Method: Shef4TetR5-shELA and Shef4TetR5-shβ2M cells were cultured in the presence (shELA and shβ2M respectively) or absence (Control) of 20 ng/ml doxycycline for 1 passage (4 days) and dissociated with Accutase. […] 24 hours later, the media was changed to Endo differentiation media 1 [RPMI 1640 (Gibco), 1X B-27 supplement (Invitrogen), 50 ng/ml of Activin A (R&D Systems), 25 ng/ml BMP4 (R&D Systems) and 50 ng/ml bFGF (Invitrogen)] for 3 days. On day 3, the media was changed to Endo differentiation media 2 (RPMI 1640, B27, 50 ng/ml Activin) for 2 more days of culture. Rescue experiments were performed by adding 2.5 uM of ELA peptide to Shef4TetR5-shELA concurrently with doxycycline up to day 3, when the ELA peptide is no longer necessary as judged by downregulation of endogenous ELA.
On day 5, cells were fixed with 4% paraformaldehyde and stained with α SOX17 (AF1924, R&D Systems) and DAPI. For each well, three different randomly selected fields were imaged and the number of nuclei staining positive of SOX17 and DAPI were counted using a custom macro in ImageJ. A minimum of two wells per condition was used for each experiment, and a minimum of two independent experiments were performed to generate the results.

[8] = test system: pluripotency markers POU5F1, NANOG, SSEA3 and TRA-1-60; assay: Pluripotency markers in ELA-depleted hESCs (immunofluorescence, qPCR); assay type: cell-based, human; settings: prolonged ELA depletion in hESCs
Method: […]. Neomycin-resistant cells were clonally expanded and assayed for doxycycline (20 ng/ml)-inducible knockdown. Data from one representative clone (Shef4TetR5 shELA) are shown in this paper. Shef4TetR5 shβ2M were derived as previously described (Zafarana et al., 2009). Unless otherwise stated, ELA knockdown was induced on Day −4 with 20 ng/ml doxycycline to generate shELA cells.
Polyclonal antibodies were raised against a human N-terminal epitope (nh2-[…]) (SEQ ID NO: 53), C-terminal epitope ([…]-cooh) (SEQ ID NO: 52) or whole mature ELABELA peptide with an intramolecular cysteine bond (nh2-[…]-cooh) (SEQ ID NO: 2) and peptide-affinity purified from rabbit and goat sera. […] For western blotting and immunofluoresence assays, ELA antibodies were used at 1 μg/mL. All other antibodies are commercially available: TGN-46 (Serotec # AHP500GT); SSEA-3 (Stem Cell Tech #60061AD); TRA-1-60 (BD #560173); SOX17 (R&D # AF1924); POU5F1 (SCBT #sc-5279).

[9] = test system: mesendodermal genes including GATA6, GATA4, FOXA2, EOMES and BRA; assay: qPCR of mesendodermal markers in hESCs; assay type: cell-based, human
Method: After the indicated time periods, embryoid bodies were harvested and RNA extracted using RNeasy kit […]. qPCR reactions were carried out using either Universal FastStart SYBR Green Mastermix (Roche) or using the Universal Probe Library system (Roche) in tandem with Taqman Fast Mastermix (Invitrogen). Primer sequences can be found in Table E1.

[10] = test system: hESCs; assay: Apoptosis assay (Annexin V, activated Caspase 3); assay type: cell-based, human
Method: Apoptosis assays were performed by plating control and Doxycycline-treated cells without Y-27632 onto matrigel for 6 hours, followed by harvesting and staining for Annexin V and activated Caspase 3.

[11] = test system: ELA processing and secretion; assay: Xenopus secretion assay; assay type: cell-based; settings: Xenopus laevis embryos injected with human ELA mRNA; increasing amounts
Method: ZFNs were purchased from Sigma-Aldrich. 250 pg of mRNAs encoding the ZFN pair were injected into 1-cell stage embryos. ZFN binding sites within exon 1 are as follows: 5′_[…] 3′ (SEQ ID NO: 133) and 5′_[…]_3′ (SEQ ID NO: 134). Sequencing primers flanking the mutation sites are: forward 5′_[…]_3′ (SEQ ID NO: 135), reverse 5′[…]_3′ (SEQ ID NO: 136). For ela overexpression, 200 pg of SP6-transcribed zebrafish ela capped mRNA (Applied Biosystems) was injected into 1-cell stage zebrafish embryos. Translation blocking MOs used for aplnra and aplnrb have been described previously (Scott et al., 2007; Zeng et al., 2007) and were purchased from Gene tools (Oregon, USA). Embryos were injected at 1-cell stage with a combination of 1 ng of aplnra MO and 0.5 ng of aplnrb MO (Zeng et al., 2007). Information on probes used for q-PCR and WISH can be found in Tables E1 and E2. Zebrafish embryos at 100% epiboly were dechorionated and processed for western blotting as previously described (Link et al., 2006). For the Xenopus secretion assay, 16 ng of SP6-transcribed human ELA capped mRNA (Applied Biosystems) was injected into each cell of 4-cell stage embryos. At stage 8, embryos were dechorionated and dissociated in CMFM medium with 5 mM EDTA. […]

For “shAPLNR: lentiviral shRNA hairpins against APLNR (constructs shAPLNR-1 and shAPLNR-2) (guide 1 ACACGTACCGGGACTATGA; guide 2 CCATCATGCTGACCTGTTA)”, which “cell surface APLNR levels” value ([1]; Day 0 undifferentiated hESCs) is on record?
Its value is “No changes”.

What about the “cell surface APLNR levels” value ([1]; Day 3 mesoendoderm cells) of the same compound?
The value was “significantly reduced cell surface APLNR levels”.

And the “growth of knockdown hESCs (real-time cell index, xCELLigence)” value [2]?
Its value is “not compromised; also recorded: do not show impaired growth”.

What about the “levels of AP-ELA bound after APLNR depletion” value [3] of the same compound?
The value was “could not reduce binding of AP-ELA; also recorded: does not affect”.

What about the “levels of AP-ELA bound after APLNR depletion” value [4] of the same compound?
Its value is “sufficient to significantly diminish the levels of AP-ELA; also recorded: significantly reduced AP-ELA binding”.

Which results are given for “shELA: doxycycline-inducible shRNA, sequence GTGATTCTCGTGCCTCAAC targeting the 3′UTR of ELA, in Shef4TetR5 hESCs”?
cell cycle progression [5]: not due to the activation of G1/S checkpoint or lengthened G0 residence; also recorded: do not display overt changes in cell cycle progression; growth of hESCs by cell numbers ([2]; FIG. 3C, relative to untreated hESCs): reduced growth; growth of hESCs relative to untreated cells ([2]; hESCs pulsed with peptide, documented by cell counts, colony size and real-time cell indices): reduced growth; colony size ([2]; knockdown hESC colonies versus control): less than half the size; also recorded: twice as small; growth of knockdown hESCs (real-time cell index, xCELLigence) [2]: markedly reduced growth rates; also recorded: significant growth impairment; teratoma / tumor formation [6]: did not form teratomas; directed endoderm differentiation (SOX17 expression) [7]: impaired endoderm differentiation; also recorded: markedly impaired; pluripotency markers and colony morphology [8]: downregulation of pluripotency markers; also recorded: lose expression of pluripotency markers; also recorded: gradually differentiate and lose pluripotency markers; expression of mesendodermal markers [9]: reduced levels; also recorded: conversely downregulated; apoptosis ([10]; FACs, ANNEXIN V and activated CASPASE 3, single cells): significantly higher rate; also recorded: rapid apoptosis; increase in the number of ANNEXIN V and activated CASPASE 3-positive cells ([10]; compared to control hESCs): approximately 40%

C[C@H]1CCC/C=C/[C@@H]2C[C@H](O)C[C@H]2[C@H](O)/C=C/C(=O)O1 [Brefeldin A] was tested. Which “ELA processing and secretion” value [11] did it give?
The value was “able to block ELA processing and secretion; also recorded: blocks ELA processing”.
